Reference: patent US20140206633A1, “PROCESS FOR THE PREPARATION OF ISOXAZOLINE DERIVATIVES” (SYNGENTA CROP PROTECTION LLC, priority 2010, published 2014)

| melting point | Structure (SMILES) |
| --- | --- |
| 150 to 152 °C (dec.) | C=CC1C[N+]2(Cc3c4ccccc4cc4ccccc34)CCC1C[C@H]2[C@H](O)c1ccnc2ccc(OC)cc12.[Cl-] (some centres unmarked) |
| 162 to 165 °C (dec.) | C=CC1C[N+]2(Cc3c(F)c(F)c(F)c(F)c3F)CCC1C[C@H]2[C@H](O)c1ccnc2ccc(OC)cc12.[Br-] (some centres unmarked) |
